SMILES strings stand for the structures.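 Test compounds were applied to cells in 96-well plates for 48 hours at 5 doses. GI50 = concentration required for 50% inhibition of growth. TGI: total growth inhibition.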

Test systems include HCT-116 colon; SF-539 CNS; MALME-3M melanoma; UACC-62 melanoma; HOP-92 NSCLC; MDA-MB-231 breast; IGROV1 ovarian; T-47D breast; LOX IMVI melanoma; SF-295 CNS.
What all share (test): NCI anticancer screen, dose series, 48 h

On to `CNC(=O)OC1C(O[C@H]2C[C@H]3[C@@H]4CC=C5C[C@@H](O)CC[C@]5(C)[C@H]4CC[C@]3(C)[C@H]2[C@H](C)C(=O)CCC(C)C)OCC(O)C1OC1OCC(O)C(O)C1OC(=O)c1ccc(OC)cc1` (stereo not given in full), for which the GI50 with HCT-116 colon was 0.0129 µM; in the assay with SF-539 CNS, less than 0.00275 µM; in the assay on MALME-3M melanoma, 0.0517 µM; in the assay on UACC-62 melanoma it was 0.00688 µM; in the assay with HOP-92 NSCLC, 0.0209 µM; with MDA-MB-231 breast, 0.103 µM. Moreover, the GI50 was 0.0224 µM with IGROV1 ovarian, 0.035 µM in the assay on T-47D breast, 0.0106 µM in the assay with LOX IMVI melanoma and less than 0.00275 µM in the assay with SF-295 CNS. The TGI in the assay on HCT-116 colon was 3.11 µM; in the assay with SF-539 CNS it was 0.0185 µM; in the assay with MALME-3M melanoma it was 2.33 µM; with UACC-62 melanoma, 0.0188 µM; in the assay on HOP-92 NSCLC it was 3.1 µM; in the assay with MDA-MB-231 breast, 4.62 µM. Also, the TGI was 3.95 µM with IGROV1 ovarian, 3.69 µM in the assay on T-47D breast, 0.0688 µM in the assay on LOX IMVI melanoma and 0.00628 µM in the assay on SF-295 CNS.

Take `CN1CCN(c2ccc(NC3=C(Cl)C(=O)c4ncccc4C3=O)cc2C#N)CC1`: the GI50 in the assay with HCT-116 colon was 1.72 µM; with SF-539 CNS, 4.44 µM; with MALME-3M melanoma it was 1.47 µM; with UACC-62 melanoma, 1.78 µM; with HOP-92 NSCLC, 1.82 µM; in the assay with MDA-MB-231 breast, 1.57 µM. Besides, the GI50 in the assay on IGROV1 ovarian is 1.34 µM; with T-47D breast, 1.76 µM; in the assay on LOX IMVI melanoma, 1.51 µM; with SF-295 CNS, 15 µM. For the same molecule, the TGI amounted to 3.36 µM in the assay on HCT-116 colon; 15 µM in the assay with SF-539 CNS; 2.81 µM in the assay with MALME-3M melanoma; 3.61 µM with UACC-62 melanoma; 3.45 µM with HOP-92 NSCLC; 4.17 µM in the assay on MDA-MB-231 breast. Further, the TGI in the assay on IGROV1 ovarian was determined as 2.82 µM; in the assay with T-47D breast, 5.26 µM; with LOX IMVI melanoma, 3.19 µM; in the assay on SF-295 CNS, 28.8 µM.

Regarding `CCCCCCCCCCCCCC(=O)C(C)N` (stereo not given), the GI50 in the assay on HCT-116 colon was 5.27 µM; in the assay on SF-539 CNS, 6.63 µM; with MALME-3M melanoma it was 14 µM; in the assay with UACC-62 melanoma, 3.25 µM; in the assay on HOP-92 NSCLC, 5.71 µM; in the assay on MDA-MB-231 breast, 2.37 µM. For the same molecule, the GI50 with IGROV1 ovarian is 3.68 µM; with T-47D breast, 2.17 µM; in the assay on LOX IMVI melanoma it was 1.88 µM; with SF-295 CNS it was 2.88 µM. The TGI with HCT-116 colon worked out at 18.7 µM; with SF-539 CNS, 21.6 µM; in the assay on MALME-3M melanoma it was 29.3 µM; in the assay with UACC-62 melanoma it was 10.4 µM; with HOP-92 NSCLC it was 19.2 µM; in the assay with MDA-MB-231 breast, 6.06 µM. Moreover, the TGI was found to be 14 µM with IGROV1 ovarian, 5.5 µM with T-47D breast, 3.66 µM in the assay with LOX IMVI melanoma and 10 µM with SF-295 CNS.

Regarding `Oc1c(I)cc(-c2nc3ccccc3s2)cc1CN(Cc1ccccn1)Cc1ccccn1`, the GI50 was 0.494 µM in the assay on HCT-116 colon; 0.246 µM with SF-539 CNS; 0.288 µM in the assay with MALME-3M melanoma; 0.207 µM in the assay with UACC-62 melanoma; 0.273 µM with HOP-92 NSCLC; 0.217 µM with MDA-MB-231 breast. The GI50 is 0.517 µM in the assay with IGROV1 ovarian, 0.666 µM with T-47D breast, 0.305 µM in the assay with LOX IMVI melanoma and 0.35 µM with SF-295 CNS. Further, the TGI in the assay on HCT-116 colon was 12.4 µM; in the assay on SF-539 CNS, 0.903 µM; with MALME-3M melanoma it was 4.79 µM; in the assay with UACC-62 melanoma it was 0.563 µM; in the assay on HOP-92 NSCLC, 5.45 µM; in the assay with MDA-MB-231 breast, 10.4 µM. The TGI is 9.06 µM in the assay on IGROV1 ovarian, 83.3 µM in the assay with T-47D breast, 1.38 µM with LOX IMVI melanoma and more than 100 µM with SF-295 CNS.

As for `C[C@@H](Oc1ccc2[nH]nc(/C=C/c3cnn(CCO)c3)c2c1)c1c(Cl)cncc1Cl`, the GI50 was 0.082 µM in the assay on HCT-116 colon; 0.035 µM in the assay on SF-539 CNS; 1.86 µM in the assay with MALME-3M melanoma; 1.65 µM in the assay with UACC-62 melanoma; 0.0168 µM with HOP-92 NSCLC; 0.357 µM with MDA-MB-231 breast. The GI50 with IGROV1 ovarian is 0.135 µM; in the assay on T-47D breast it was 1.31 µM; with LOX IMVI melanoma, 0.0593 µM; in the assay with SF-295 CNS, 0.0785 µM. The TGI with HCT-116 colon is more than 100 µM; in the assay with SF-539 CNS it was 0.268 µM; in the assay with MALME-3M melanoma, 4.68 µM; in the assay with UACC-62 melanoma it was 3.81 µM; in the assay on HOP-92 NSCLC, 0.0987 µM; with MDA-MB-231 breast, more than 26.5 µM. Moreover, the TGI with IGROV1 ovarian was determined as 5.04 µM; in the assay with T-47D breast it was 7.69 µM; with LOX IMVI melanoma it was 0.281 µM; in the assay on SF-295 CNS it was 23.7 µM.

With `C1=C(c2ccccc2)C(c2ccc(OCCN3CCCCC3)cc2)Oc2ccccc21` (stereo not given), the GI50 with HCT-116 colon is 1.7 µM; in the assay on SF-539 CNS, 1.62 µM; in the assay with MALME-3M melanoma, 1.73 µM; with UACC-62 melanoma, 1.92 µM; in the assay with HOP-92 NSCLC, 1.56 µM; in the assay on MDA-MB-231 breast it was 1.86 µM. In addition, the GI50 was 2.07 µM with IGROV1 ovarian, 1.04 µM with T-47D breast, 1.65 µM in the assay on LOX IMVI melanoma and 1.72 µM in the assay with SF-295 CNS. In addition, the TGI in the assay on HCT-116 colon was determined as 3.07 µM; in the assay on SF-539 CNS it was 3.08 µM; with MALME-3M melanoma, 3.48 µM; with UACC-62 melanoma it was 3.68 µM; in the assay with HOP-92 NSCLC, 3.25 µM; in the assay on MDA-MB-231 breast, 3.51 µM. Besides, the TGI is 5.07 µM with IGROV1 ovarian, 2.78 µM in the assay with T-47D breast, 3.01 µM in the assay with LOX IMVI melanoma and 3.29 µM with SF-295 CNS.

Regarding `COc1ccc(Cl)cc1NC(=O)c1cccc([N+](=O)[O-])c1O`, the TGI in the assay on HCT-116 colon was 43.3 µM; with SF-539 CNS, 33 µM; in the assay on MALME-3M melanoma it was 19.3 µM; in the assay with UACC-62 melanoma it was 24.3 µM; with HOP-92 NSCLC it was 16.6 µM; in the assay on MDA-MB-231 breast, more than 100 µM. For the same molecule, the TGI in the assay on IGROV1 ovarian is more than 92.5 µM; in the assay with T-47D breast, more than 100 µM; in the assay on LOX IMVI melanoma, more than 84.2 µM; with SF-295 CNS it was 55.3 µM.

In the case of `CC(=O)OC1CCC2(C)C(=CCC3C4CCC5(OC6CC(C)CN(C(C)=O)C6C5C)C(C)=C4C(=O)C32)C1` (stereo not given), the TGI in the assay with HCT-116 colon was found to be 36.7 µM; with SF-539 CNS, 39.9 µM; in the assay with MALME-3M melanoma it was 29.9 µM; in the assay on UACC-62 melanoma, 18.5 µM; in the assay on HOP-92 NSCLC it was 28.9 µM; in the assay on MDA-MB-231 breast it was 33.3 µM. Also, the TGI stood at 29.1 µM in the assay on IGROV1 ovarian, 49 µM in the assay on T-47D breast, 24.4 µM in the assay on LOX IMVI melanoma and 42 µM with SF-295 CNS.

The values are drawn from PubChem BioAssay (NCI).
